Data: PMC8199216 (International Journal of Molecular Sciences, 2021)
Several values for one entry are separate records, joined by “and”; a condition that tells them apart may be missing. Identical values can stand only once.

Columns and labels:
His-Spindlin1(49–262) [1] = molecular target: T1, His-Spindlin1(49–262) (Homo sapiens, UniProt Q9Y657); test: biochemical
Description: (§3) To investigate the influence of these modifications on the Spindlin1 inhibitory activity, the fluorescence polarization assay established earlier [31] was used to determine the potency of the compounds.
(§4) Fluorescence polarization assays were carried out as described before [31]. […] For the controls, a buffer solution with the same DMSO concentration as the inhibitor solutions was added to the plate instead of the inhibitor solution, the negative control contained the H3(1–14)K4me3-Fluorescein without Spindlin1. The blank control contained buffer solution with DMSO. Every inhibitor concentration and the controls were done in triplicates. Fluorescence polarization values (mP) were determined after blank correction as IS−G×IP/IS+G×IP×1000 , where G is a device-specific factor and IS and IP are the fluorescence intensities of the S and P plane, respectively. […] Curve fitting was carried out using GraphPad Prism 7, applying a non-linear sigmoidal fit with a variable slope.

GLP (982–1266) = molecular target: T2, GLP (982–1266) (Homo sapiens, UniProt Q9H9B1); test: Coupled enzyme fluorescent histone methyltransferase assay (SAM-SAH conversion); assay type: biochemical; settings: fluorescence based coupled enzyme assay
T2 construct: GLP (982–1266) were cloned, expressed, and purified; made in house
T2 sequence (Q9H9B1 982-1266): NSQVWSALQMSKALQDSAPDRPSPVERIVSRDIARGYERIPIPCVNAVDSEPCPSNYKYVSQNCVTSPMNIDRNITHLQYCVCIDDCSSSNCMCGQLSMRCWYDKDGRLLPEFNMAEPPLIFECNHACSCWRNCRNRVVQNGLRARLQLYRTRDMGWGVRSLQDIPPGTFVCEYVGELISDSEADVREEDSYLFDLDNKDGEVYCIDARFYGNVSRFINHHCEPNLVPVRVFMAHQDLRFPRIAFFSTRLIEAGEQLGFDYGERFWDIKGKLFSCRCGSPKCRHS
Description: (§1) Full length of S. solfataricus S-adenosylhomocysteine hydrolase (SAHH) was cloned, expressed, and purified using the published protocol.
(§2) The assay was performed using the previously published protocol. Tested compounds were pre-dissolved in assay buffer (20 mM HEPES pH 7.5, 50 mM NaCl, 0.01% Triton X-100, 3 mM MgCl2, 0.1 mg/mL BSA) with 5 μM of purified SAHH, 1 unit of ADA, 10 μM of H3, and 5 nM of either G9a or GLP as 30 μL in black 96-well plate. […] After incubation for 10 min at room temperature, thiol fluorescent probe IV (20 μM, 50 μL) was added.

Human G9a (913–1193) = molecular target: T3, Human G9a (913–1193) (Homo sapiens, UniProt Q96KQ7); test: as above; assay type: biochemical; settings: fluorescence based coupled enzyme assay
T3 construct: Catalytic domains of Human G9a (913–1193); made in house
T3 sequence (Q96KQ7 913-1193): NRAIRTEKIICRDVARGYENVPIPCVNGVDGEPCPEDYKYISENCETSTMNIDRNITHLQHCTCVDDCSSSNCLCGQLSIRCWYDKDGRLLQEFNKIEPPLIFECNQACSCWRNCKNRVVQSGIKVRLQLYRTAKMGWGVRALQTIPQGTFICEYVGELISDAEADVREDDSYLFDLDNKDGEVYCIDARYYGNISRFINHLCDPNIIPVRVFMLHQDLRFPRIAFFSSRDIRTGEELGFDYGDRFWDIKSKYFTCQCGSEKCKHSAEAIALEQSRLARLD
Description: as §1, §2

His-Spindlin1(49–262) [2] = molecular target: T1, His-Spindlin1(49–262); settings: fluorescence polarization
Description: as §3, §4

[3] = read-out: Spin1 inhibition in percentage at specified concentration

T1 sequence (Q9Y657 49-262): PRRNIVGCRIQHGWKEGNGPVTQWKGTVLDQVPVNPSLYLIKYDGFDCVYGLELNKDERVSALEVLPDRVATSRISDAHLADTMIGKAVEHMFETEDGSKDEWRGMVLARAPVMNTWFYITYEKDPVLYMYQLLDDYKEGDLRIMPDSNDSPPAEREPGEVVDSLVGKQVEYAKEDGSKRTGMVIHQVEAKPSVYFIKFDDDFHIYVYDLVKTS

| Structure (SMILES) | IC50 (Spindlin1 (Spin1)) | IC50 (G9a) | IC50 (GLP) | IC50 (His-Spindlin1(49–262) [1]) [nM] | IC50 (GLP (982–1266)) [nM] | IC50 (Human G9a (913–1193)) [nM] | Spindlin1 inhibitory activity (in words) (His-Spindlin1(49–262) [2]) | other results |
| --- | --- | --- | --- | --- | --- | --- | --- | --- |
| CCC1(CC)C(N)=Nc2cc(OCCCN3CCCC3)c(OC)cc21 [1o] | 1210 nM and 1210 ± 90 nM | > 20000 nM | > 20000 nM | 1210 ± 90 | > 20000 | > 20000 |  |  |
| COc1cc2c(cc1OCCN1CCCC1)N=C(N)C21CCCCC1 [1d] |  |  |  |  |  |  | Inactive |  |
| COc1cc2c(cc1OCCCN1CCC(O)C1)N=C(N)C21CCCC1 (racemic) [1q (rac)] |  |  |  | 584 | 4430 | 2320 |  |  |
| CC(C)Oc1cc2c(cc1OCCCN1CCCC1)N=C(N)C21CCC1 [1m] | 3300 nM |  |  | 3300 ± 470 |  |  | micromolar range |  |
| COc1cc2c(cc1OCCCN1CCCC1)N=C(N)C21CCCCC1 [1n] | 255 nM | 779 nM | 527 nM | 255 ± 35 | 527 | 779 |  |  |
| COc1cc2c(cc1OCCCN1CCCC1)N=C(N)C21CCCC1 [1f] |  | 431 nM | 334 nM |  | 334 | 431 |  |  |
| CCOc1c(OCCCN2CCCC2)cc2c(c1OCC)C1(CCCC1)C(N)=N2 [1a] |  |  |  |  |  |  | weakly active | % inhibition at 25 μM (Spindlin1 (Spin1)): 70% @ 25 μM [d]; inhibition at 25 µM (His-Spindlin1(49–262) [1]; [3]): 70% |
| COc1cc2c(cc1OCCCN1CCCC1)N=C(N)C2(C)C [1p] | 157 nM | 759 nM | 470 nM | 157 ± 12 | 470 | 759 |  |  |
| COc1cc2c(cc1OCCN1CCCC1)N=C(N)C21CCC1 [1e] |  |  |  |  |  |  | Inactive |  |
| COc1c(OCCCN2CCCC2)cc2c(c1OC)C1(CCCC1)C(N)=N2 [1j] | 2500 nM |  |  | 2500 ± 200 |  |  |  |  |
| CCOc1cc2c(cc1OCCCN1CCCC1)N=C(N)C21CCCC1 [1g] |  | 243 nM | 2970 nM |  | 2970 | 243 |  |  |
| COc1cc2c(cc1OCCCN1CC[C@@H](O)C1)N=C(N)C21CCCC1 [1q (R)] | (R): 470 ± 27 |  |  | 470 |  |  |  |  |
| COc1c(OCCCN2CCCC2)cc2c(c1Cl)C1(CCCC1)C(N)=N2 [1i] | 1600 nM | > 20000 nM | > 20000 nM | 1600 ± 200 | > 20000 | > 20000 |  |  |
| COc1cc2c(cc1OCCCCN1CCCC1)N=C(N)C21CCCCC1 [1c] |  | > 20000 nM | > 20000 nM |  | > 20000 | > 20000 | inactive | % inhibition at 50 μM (Spindlin1 (Spin1)): 42% @ 50 μM [d]; inhibition at 50 µM (His-Spindlin1(49–262) [1]; [3]): 42% |
| COc1c(OCCCN2CCCC2)cc2c(c1C#N)C1(CCCC1)C(N)=N2 [1h] | 3900 nM |  |  | 3900 ± 700 |  |  |  |  |
| CCC1(C)C(N)=Nc2cc(OCCCN3CCCC3)c(OC)cc21 (stereo not shown) [1r] | 408 nM | 3190 nM | 3180 nM | 408 ± 35 | 3180 | 3190 |  |  |
| COc1cc2c(cc1OCCCN1CC[C@H](O)C1)N=C(N)C21CCCC1 [1q (S)] |  |  |  | 478 |  |  |  |  |
| COc1cc2c(cc1OCCCN1CCC(O)C1)N=C(N)C21CCCC1 (racemic) | (rac): 584 ± 31 | (rac): 2321 | (rac): 4432 |  |  |  |  |  |
| COc1cc2c(cc1OCCCN1CCC(=O)C1)N=C(N)C21CCCC1 [1b] |  |  |  |  |  |  | weakly active | % inhibition at 100 μM (Spindlin1 (Spin1)): 81% @ 100 μM [d]; inhibition at 100 µM (His-Spindlin1(49–262) [1]; [3]): 81% |
| COc1cc2c(cc1OCCCN1CCC(CO)C1)N=C(N)C21CCCC1 (stereo not shown) [1u] | 1250 nM | > 20000 nM | > 20000 nM | 1250 ± 50 | > 20000 | > 20000 |  |  |
| CCOc1cc2c(cc1OCCCN1CCCC1)N=C(N)C21CCCCC1 [1l] | 567 nM |  |  | 567 ± 35 |  |  |  |  |
| CCC1(C)C(N)=Nc2cc(OCCCN3Cc4ccccc4C3)c(OC)cc21 (stereo not shown) [1s] | 360 nM | > 20000 nM | > 20000 nM | 360 ± 20 | > 20000 | > 20000 | nanomolar range |  |
| CCC1(C)C(N)=Nc2cc(OCCCN3CC[C@@H](C)C3)c(OC)cc21 (stereo partly shown) [1t] | 467 nM | > 20000 nM | > 20000 nM | 467 ± 15 | > 20000 | > 20000 | nanomolar range |  |
| COc1cc2c(cc1OCCCN1CCC(O)C1)N=C(N)C21CCCC1 (stereo not shown) | (S): 478 ± 34 |  |  |  |  |  |  |  |
| COc1c(OCCCN2CCCC2)cc2c(c1C(C)=O)C1(CCCC1)C(N)=N2 [1k] | 11800 ± 210 nM |  |  | 11800 |  |  |  |  |
